According to patent US20230123334A1, “AMINO LIPID COMPOUND, PREPARATION METHOD THEREFOR, AND APPLICATION THEREOF” (SHENZHEN SHENXIN BIOTECHNOLOGY CO., LTD., priority 2020, published 2023):

Columns and labels:
HEK293 cells [1] = experiment: Preliminary screening as DNA vectors, GFP transfection of HEK293 cells; type: cell-based; conditions: HEK293 cells; lipid/DOPE liposome with 75 ng plasmid DNA (psin-EGFP-IRES-Puro); number of cells expressing GFP divided by total number of nuclei (Hoechst)
Method in brief: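 Lipid + DOPE liposomes (NaOAc, pH 5.6) complexed w/ 75 ng psin-EGFP-IRES-Puro, 30 min RT; added to 3-5×10^4 HEK293/well, 37° C. Hoechst 0.2 μg/mL at 20-24 h, imaged after further 20-24 h. Efficiency = GFP+ cells / total nuclei.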

HEK293 cells [2] = experiment: Preliminary screening as mRNA vectors, EGFP mRNA transfection of HEK293 cells; type: cell-based; conditions: HEK293 cells, 96-well plates, EGFP mRNA 50 ng per well; percentage of GFP fluorescent cells relative to total number of cells (Hoechst)
Method in brief: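 Each well of HEK293 cells received 50 ng of EGFP mRNA. Efficiency was expressed as percent GFP-expressing cells over Hoechst-defined total cell number.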

Structure (SMILES) | Absolute DNA transfection efficiency in HEK293 cells (HEK293 cells [1]) | Absolute mRNA transfection efficiency in HEK293 cells (HEK293 cells [2])
CCCCCCCCCNc1nc(NCCCCCCCC)nc(NCCN2CCN(C)CC2)n1 [Compound N8N9D5] | 0.0% | 0.0%
CCCCCCCCCCCNc1nc(NCCCCCCCCCCC)nc(NCCN2CCN(C)CC2)n1 [Compound N11N11D5] | 0.9% | 0.4%
CCCCCCCCCCCNc1nc(NCCCCCCCCC)nc(NCCN2CCCCC2)n1 [Compound N9N11D4] | 0.0% | 0.0%
CCCCCCCCCCCCCCCCCCNc1nc(NCCN2CCCC2)nc(N(CCCCCCCCCCCC)CCCCCCCCCCCC)n1 [N18^2N12D3] | 1.5% | 3.4%
CCCCCCCCCCCCCCCCCCSc1nc(NCCCN2CCOCC2)nc(SCCCCCCCC)n1 [Compound S8S18D8] | 18.7% | 4.2%
CCCCCCCCCCCCCNc1nc(NCCCCCCCCC)nc(NCCCN2CCN(C)CC2)n1 [Compound N9N13D9] | 0.0% | 2.5%
CCCCCCCCCCCSc1nc(NCCCN(C)C)nc(SCCCCCCCCC)n1 [Compound S9S11D6] | 41.9% | 85.1%
CCCCCCCCCCCCCCCSc1nc(NCCN(CC)CC)nc(SCCCCCCCC)n1 [Compound S8S15D7] | 13.8% | 0.0%
CCCCCCCCCCCCCCCCNc1nc(NCCCCCCCCC)nc(NCCCN(C)C)n1 [Compound N9N16D6] | 2.2% | 6.2%
CCCCCCCCCCCCSc1nc(NCCCN(C)C)nc(SCCCCCCCCCCCC)n1 [Compound S12S12D6] | 3.9% | 2.6%
CCCCCCCNc1nc(NCCCCCC)nc(NCC2CCN(C)CC2)n1 [Compound N6N7D10] | 0.0% | 0.0%
CCCCCCCCCCCCCCCCCCNc1nc(NCCCCCCCCCCCCCCC)nc(NCCN2CCCCC2)n1 [Compound N15N18D4] | 1.6% | 1.9%
CCCCCCCCCCCCCCCCNc1nc(NCCCCCCCCC)nc(NCCN(C)C)n1 [Compound N9N16D1] | 2.1% | 1.5%
CCCCCCCCCCCCCCCCNc1nc(NCCCCCCCCCCCCCCCC)nc(NCCN2CCCC2)n1 [Compound N16N16D3] | 1.4% | 2.8%
CCCCCCCCCCCCCCCCCCNc1nc(NCCCCCCCCC)nc(NCCCN(C)C)n1 [Compound N9N18D6] | 2.2% | 2.5%
CCCCCCCCCCCCCCCCSc1nc(NCCN2CCCCC2)nc(SCCCCCCCCCCCC)n1 [Compound S12S16D4] | 3.3% | 6.3%
CCCCCCCCCCCCN(CCCCCCCCCCCC)c1nc(NCCCCCCCC)nc(NCCCN(C)C)n1 [N8^2N12D6] | 0.0% | 0.9%
CCCCCCCCCCCCSc1nc(NCCN(C)C)nc(SCCCCCCCCCCC)n1 [Compound S11S12D1] | 2.3% | 4.7%
CCCCCCCCCCCNc1nc(NCCCCCC)nc(NCCCN2CCOCC2)n1 [Compound N6N11D8] | 0.0% | 0.1%
CCCCCCCCCCCCNc1nc(NCCCCCCCC)nc(NCCN2CCCC2)n1 [Compound N8N12D3] | 2.4% | 0.5%
CCCCCCCCCCCCCNc1nc(NCCCCCCCC)nc(NCCN(CC)CC)n1 [Compound N8N13D7] | 0.0% | 0.0%
CCCCCCCCCCCNc1nc(NCCCCCCC)nc(NCCN2CCOCC2)n1 [Compound N7N11D2] | 0.1% | 0.0%
CCCCCCCCCCCSc1nc(NCCCN2CCOCC2)nc(SCCCCCCCCCCC)n1 [Compound S11S11D8] | 3.6% | 1.4%
CCCCCCCCCCCCNc1nc(NCCCN2CCN(C)CC2)nc(N(CCCCCCCCCCCC)CCCCCCCCCCCC)n1 [N12^2N12D9] | 3.0% | 0.7%
